Experimental findings from US20250255857A1, “METHODS OF TREATING ANDROGEN RECEPTOR-INDEPENDENT PROSTATE CANCER” (FOGHORN THERAPEUTICS INC., priority 2022, published 2025) are described below.

Holding throughout (type): in vivo, mice
The test system of data set [1] is LNCaP prostate xenograft tumors. Put plainly: LNCaP prostate xenograft tumor model, tumor growth inhibition. How it is done:
(§1) Procedure: The experimental details of the studies, including tumor model, mouse strain, cell number implanted, vehicle used, days of treatment, treatment details, and average tumor size at start of dosing are outlined in Table 1. All study mice were purchased from Beijing Anikeeper Biotech and Matrigel was utilized as a basement membrane for all xenograft models. All xenografts were engrafted subcutaneously in the right flank region. The vehicles and Compound 1 (3 mg/kg) were administered twice weekly (BIW) intraperitoneally and enzalutamide (30 mg/kg) was administered orally once daily (QD), when applicable. Tumor volumes and body weights were measured over the course of study, and doses were adjusted by body weight to achieve the proper dose in terms of mg/kg.

In data set [2] the test system is VCaP prostate xenograft tumors. Put plainly: VCaP prostate xenograft tumor model (Example 1), tumor growth inhibition. On the procedure: as §1
Data set [3] relates to DU145 human prostate cancer tumor cells. The data set is described as follows: DU145 subcutaneous CDX model efficacy study (tumor growth inhibition, tolerability). Conditions: for tumor growth inhibition (TGI): DU145, P<0.001 vs. vehicle control; for Tumor Growth % on Day 49 / Tumor Size on Day 49 / T/C / TGI: DU145 subcutaneous model, 43 days; for T/C / TGI: Day 49. How it is done: Procedure: The experimental details of the studies, including tumor model, mouse strain, cell number implanted, vehicle used, days of treatment, treatment details, and average tumor size at start of dosing are outlined in Table 3. All study mice were obtained and the studies were conducted at Pharmaron. Each mouse was inoculated subcutaneously on the right flank with the single cell suspension of DU145 human prostate cancer tumor cells (5×10^6) in 0.1 mL with Matrigel (1:1) in MEM with 10% FBS for tumor development.
Based on tumor volume, mice were randomly assigned to respective groups using a computer-generated randomization procedure. The study groups and the number of animals per group are shown in Table 4A (efficacy study) and Table 4B (PKPD study).
Treatment for the efficacy cohort was initiated when the mean tumor volume reached 145 mm^3 on Day 7 post tumor cell inoculation. Animals for the efficacy study were randomized into 3 groups: 1) Vehicle Control BIW IP (administered twice per week, intraperitoneally (IP); 2) Compound 1 at 3 mg/kg BIW IP; and 3) Compound 1 at 15 mg/kg BIW IP.
In the case of an animal reaching a tumor size exceeding 2000 mm^3, the entire group was terminated. Plasma and tumor samples were collected at 4 hours and 72 hours post last dose for all groups. For the PKPD Cohort, the tumors were cut into 2 pieces: one for Western Blotting (WB) with BRD9 analysis, and one for RNAseq analysis. For the Efficacy Cohort, the tumors were analyzed for BRD9 levels by Western Blotting (WB).

By T/C is commonly meant the ratio of treated to control. The TGI is how far tumour growth fell short of that in controls. A higher TGI goes with a stronger effect on the tumour. As for `COc1cc(-c2cn(C)c(=O)c3cnc(N4CCC4)cc23)cc(OC)c1CN1CCC(CN2CCC3(CC2)CN(c2ccc4c(c2)C(=O)N(C2CCC(=O)NC2=O)C4)C3)CC1` (stereo not shown) [Compound 1, 3-(6-(7-((1-(4-(6-(azetidin-1-yl)-2-methyl-1-oxo-1,2-dihydro-2,7-naphthyridin-4-yl)-2,6-dimethoxybenzyl)piperidin-4-yl)methyl)-2,7-diazaspiro[3.5]nonan-2-yl)-1-oxoisoindolin-2-yl) piperidine-2,6-dione], the “TGI with Compound 1 3 mg/kg” value in data set [1] (LNCaP CDX model, AR+, 3 mg/kg BIW IP) is reported as 6.0%. The “tumor growth inhibition (TGI), in words” value in data set [1] (LNCaP xenograft, Compound 1 3 mg/kg BIW IP, enzalutamide 30 mg/kg QD oral) was “did not result in tumor growth inhibition”. For the same compound, the “TGI with Compound 1 3 mg/kg” value in data set [2] (VCaP CDX model, AR V7+, 3 mg/kg BIW IP) came to 57.8%. In addition, the “tumor growth inhibition, in words” value in data set [2] (VCaP xenograft, Compound 1 3 mg/kg BIW IP, enzalutamide 30 mg/kg QD oral) is “tumor growth inhibition that was greater than the inhibition provided by enzalutamide treatment”. In data set [3] (3 mg/kg BIW IP), the “tumor growth inhibition (TGI)” value is 42.2%, the “Tumor Growth % on Day 49” value is listed as 710 ± 19%, the “Tumor Size on Day 49” value came to 1029 ± 30 mm^3 and the T/C was 57.8%. Further, the TGI in data set [3] (3 mg/kg BIW IP) is 42.2%. Moreover, in data set [3] (15 mg/kg BIW IP), the “tumor growth inhibition (TGI)” value is listed as 55.3%, the “Tumor Growth % on Day 49” value is recorded as 549 ± 26%, the “Tumor Size on Day 49” value worked out at 793 ± 31 mm^3 and the T/C was found to be 44.7%. The compound further registered a TGI in data set [3] (15 mg/kg BIW IP) of 55.3%. Also, the “safety profile: tolerability” value in data set [3] (DU145 study, 1 mg/kg, 3 mg/kg and 15 mg/kg IP during the treatment period) is listed as “tolerated Compound 1 well”. Moreover, the clinical abnormalities result in data set [3] (DU145 study, any of the animals treated) is “No obvious clinical abnormalities”.
